Experimental data published in the supplement of paper PMC10307832.

How the values were obtained:
Test in all cases: relative viability (nuclei count vs DMSO), 5 days (fraction); higher = more cells survive
NCI-H322M = test system: NCI-H322M
Summary of the method: (§1)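 Lung cancer cell lines, seeded in 1536-well plates, were treated the following day by pin tool with a single drug or with five library-drug doses (not always all listed) in √10 steps on top of a fixed anchor-drug dose. Cells were fixed and nuclei stained in one step after 5 days, and nuclei were counted. Relative viability is the nuclei count for treated wells divided by that for vehicle wells, reported as medians of duplicate plates.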

NCI-H520 = test system: NCI-H520
Summary of the method: as §1

NCI-H1755 = test system: NCI-H1755
Summary of the method: as §1

SK-MES-1 = test system: SK-MES-1
Summary of the method: as §1

NCI-H1651 = test system: NCI-H1651
Summary of the method: as §1

NCI-H2347 = test system: NCI-H2347
Summary of the method: as §1

LCLC-103H = test system: LCLC-103H
Summary of the method: as §1

NCI-H1915 = test system: NCI-H1915
Summary of the method: as §1

NCI-H727 = test system: NCI-H727
Summary of the method: as §1

SW 900 = test system: SW 900
Summary of the method: as §1

NCI-H522 = test system: NCI-H522
Summary of the method: as §1

NCI-H3122 = test system: NCI-H3122
Summary of the method: as §1

RERF-LC-KJ = test system: RERF-LC-KJ
Summary of the method: as §1

NCI-H441 = test system: NCI-H441
Summary of the method: as §1

NCI-H460 = test system: NCI-H460
Summary of the method: as §1

NCI-H661 = test system: NCI-H661
Summary of the method: as §1

NCI-H1355 = test system: NCI-H1355
Summary of the method: as §1

NCI-H596 = test system: NCI-H596
Summary of the method: as §1

PC-14 = test system: PC-14
Summary of the method: as §1

LXF-289 = test system: LXF-289
Summary of the method: as §1

COc1cc2nccc(Oc3ccc(NC(=O)Nc4cc(C)on4)c(Cl)c3)c2cc1OC [Tivozanib] + O=C(CCCCCCC(=O)Nc1ccccc1)NO [Vorinostat] (partner 1 µM)
relative viability (NCI-H322M; first compound 0.005 µM): 0.768
relative viability (NCI-H322M; first compound 0.01581 µM): 0.857
relative viability (NCI-H322M; first compound 0.05 µM): 0.87
relative viability (NCI-H322M; first compound 0.1581 µM): 0.665
relative viability (NCI-H322M; first compound 0.5 µM): 0.744
relative viability (NCI-H520; first compound 0.005 µM): 0.729
relative viability (NCI-H520; first compound 0.01581 µM): 0.754
relative viability (NCI-H520; first compound 0.05 µM): 0.691
relative viability (NCI-H520; first compound 0.1581 µM): 0.675
relative viability (NCI-H520; first compound 0.5 µM): 0.607
relative viability (NCI-H1755; first compound 0.005 µM): 0.742
relative viability (NCI-H1755; first compound 0.01581 µM): 0.786
relative viability (NCI-H1755; first compound 0.05 µM): 0.739
relative viability (NCI-H1755; first compound 0.1581 µM): 0.706
relative viability (NCI-H1755; first compound 0.5 µM): 0.587
relative viability (SK-MES-1; first compound 0.005 µM): 1.03
relative viability (SK-MES-1; first compound 0.01581 µM): 1.07
relative viability (SK-MES-1; first compound 0.05 µM): 1.13
relative viability (SK-MES-1; first compound 0.1581 µM): 1.07
relative viability (SK-MES-1; first compound 0.5 µM): 0.996
relative viability (NCI-H1651; first compound 0.005 µM): 0.444
relative viability (NCI-H1651; first compound 0.01581 µM): 0.53
relative viability (NCI-H1651; first compound 0.05 µM): 0.619
relative viability (NCI-H1651; first compound 0.1581 µM): 0.519
relative viability (NCI-H1651; first compound 0.5 µM): 0.471
relative viability (NCI-H2347; first compound 0.005 µM): 0.612
relative viability (NCI-H2347; first compound 0.01581 µM): 0.577
relative viability (NCI-H2347; first compound 0.05 µM): 0.61
relative viability (NCI-H2347; first compound 0.1581 µM): 0.797
relative viability (NCI-H2347; first compound 0.5 µM): 0.517
relative viability (LCLC-103H; first compound 0.005 µM): 0.668
relative viability (LCLC-103H; first compound 0.01581 µM): 0.809
relative viability (LCLC-103H; first compound 0.05 µM): 0.86
relative viability (LCLC-103H; first compound 0.1581 µM): 0.824
relative viability (LCLC-103H; first compound 0.5 µM): 0.656
relative viability (NCI-H1915; first compound 0.005 µM): 0.488
relative viability (NCI-H1915; first compound 0.01581 µM): 0.503
relative viability (NCI-H1915; first compound 0.05 µM): 0.567
relative viability (NCI-H1915; first compound 0.1581 µM): 0.391
relative viability (NCI-H1915; first compound 0.5 µM): 0.399
relative viability (NCI-H727; first compound 0.005 µM): 1.15
relative viability (NCI-H727; first compound 0.01581 µM): 1.26
relative viability (NCI-H727; first compound 0.05 µM): 1.3
relative viability (NCI-H727; first compound 0.1581 µM): 0.841
relative viability (NCI-H727; first compound 0.5 µM): 1.22
relative viability (SW 900; first compound 0.005 µM): 0.459
relative viability (SW 900; first compound 0.01581 µM): 0.481
relative viability (SW 900; first compound 0.05 µM): 0.627
relative viability (SW 900; first compound 0.5 µM): 0.464
relative viability (NCI-H522; first compound 0.005 µM): 1
relative viability (NCI-H522; first compound 0.01581 µM): 1
relative viability (NCI-H522; first compound 0.05 µM): 0.822
relative viability (NCI-H522; first compound 0.1581 µM): 0.721
relative viability (NCI-H522; first compound 0.5 µM): 0.809
relative viability (NCI-H3122; first compound 0.005 µM): 0.644
relative viability (NCI-H3122; first compound 0.01581 µM): 1.12
relative viability (NCI-H3122; first compound 0.05 µM): 0.97
relative viability (NCI-H3122; first compound 0.1581 µM): 1.03
relative viability (NCI-H3122; first compound 0.5 µM): 0.822
relative viability (RERF-LC-KJ; first compound 0.005 µM): 0.621
relative viability (RERF-LC-KJ; first compound 0.01581 µM): 0.616
relative viability (RERF-LC-KJ; first compound 0.05 µM): 0.734
relative viability (RERF-LC-KJ; first compound 0.1581 µM): 0.58
relative viability (RERF-LC-KJ; first compound 0.5 µM): 0.593
relative viability (NCI-H441; first compound 0.005 µM): 0.765
relative viability (NCI-H441; first compound 0.01581 µM): 0.771
relative viability (NCI-H441; first compound 0.05 µM): 0.743
relative viability (NCI-H441; first compound 0.1581 µM): 0.801
relative viability (NCI-H441; first compound 0.5 µM): 0.745
relative viability (NCI-H460; first compound 0.005 µM): 0.651
relative viability (NCI-H460; first compound 0.01581 µM): 0.741
relative viability (NCI-H460; first compound 0.05 µM): 0.748
relative viability (NCI-H460; first compound 0.1581 µM): 0.76
relative viability (NCI-H460; first compound 0.5 µM): 0.569
relative viability (NCI-H661; first compound 0.005 µM): 0.782
relative viability (NCI-H661; first compound 0.01581 µM): 0.776
relative viability (NCI-H661; first compound 0.05 µM): 0.789
relative viability (NCI-H661; first compound 0.1581 µM): 0.8
relative viability (NCI-H661; first compound 0.5 µM): 0.802
relative viability (NCI-H1355; first compound 0.005 µM): 0.58
relative viability (NCI-H1355; first compound 0.01581 µM): 0.612
relative viability (NCI-H1355; first compound 0.05 µM): 0.68
relative viability (NCI-H1355; first compound 0.1581 µM): 0.437
relative viability (NCI-H1355; first compound 0.5 µM): 0.588
relative viability (NCI-H596; first compound 0.005 µM): 0.618
relative viability (NCI-H596; first compound 0.01581 µM): 0.569
relative viability (NCI-H596; first compound 0.05 µM): 0.683
relative viability (NCI-H596; first compound 0.5 µM): 0.716
relative viability (PC-14; first compound 0.005 µM): 0.728
relative viability (PC-14; first compound 0.01581 µM): 0.792
relative viability (PC-14; first compound 0.05 µM): 0.711
relative viability (PC-14; first compound 0.1581 µM): 0.695
relative viability (PC-14; first compound 0.5 µM): 0.58
relative viability (LXF-289; first compound 0.005 µM): 0.647
relative viability (LXF-289; first compound 0.01581 µM): 0.674
relative viability (LXF-289; first compound 0.05 µM): 0.741
relative viability (LXF-289; first compound 0.1581 µM): 0.939
relative viability (LXF-289; first compound 0.5 µM): 0.684
